According to patent publication US5206415A, “Tricyclic steroid analogs” (priority 1991, dated 1993):
Counter-ions that a name gives are not always drawn. Like-named read-outs stand apart in the source and are kept apart here.

Legend:
[1] = cited from earlier work
rat synaptoneurosomes = conditions: cited from earlier work
[2] = tested on: GABA-induced chloride currents; conditions: electrophysiological experiments; cited from earlier work
[3] = tested on: GABA receptor channel complex; conditions: cited from earlier work
[4] = tested on: GABA receptor/chloride ionophore complex; assay: Potentiation of GABA currents by tricyclic analogs (patch clamp, cultured hippocampal neurons); format: cell-based, albino rat; conditions: 1 μM GABA, mean ± SEM (N)
Protocol: (§1) Under halothane anesthesia, 1 day old albino rat pups are sacrificed by rapid decapitation and the hippocampi are dissected and dissociated with papain (1 mg/ml in oxygenated L-15 media for 30 min at 35° C.) and mechanical trituration (18). Cells are plated on collagen coated-culture dishes at a density of 300,000 cells/ml. The growth media consists of Eagles Minimal Essential Media (MEM) supplemented with 5% fetal calf serum, 5% horse serum, 17 mM glucose, 0.4 mM glutamine, 50 U/ml penicillin and 50 μg/ml streptomycin. After three days in culture cells are treated with 10 μM cytosine arabinoside (ARA-C) to suppress glial growth. Cells are subsequently fed with fresh media once per week.
(§2) For recording purposes the growth media is replaced with a solution containing (in mM): 140 NaCl, 5 KCl, 2 CaCl2, 1 MgCl2, 10 glucose, 10 HEPES, 0.001 tetrodotoxin, pH=7.3. Neurons are studied using patch clamp recording techniques (12) with pipettes containing (in mM): 145 CsCl, 5 BAPTA, 5 NaCl, 0.5 CaCl2, 2 MgATP, 10 HEPES, pH=7.3. This CsCl intracellular solution sets the Cl^-1 equilibrium potential (Ecl) at 0 mV (i.e. symmetric transmembrane concentrations of Cl^-). This allows reliable recording of Cl^-1 currents without concern for shifts in transmembrane Cl^-1 concentration which can alter GABA responses during longer agonist exposures (1). […]

[5] = tested on: GABA receptor/chloride ionophore complex; assay: Direct Cl^- current activation (patch clamp, cultured hippocampal neurons); format: cell-based, albino rat; conditions: numeric bound
Protocol: as §1, §2

[6] = tested on: recombinant human GABAA receptors; conditions: single channel recordings; cited from earlier work
benzodiazepine receptors = conditions: several studies; cited from earlier work
[7] = two different animal models of anxiety; cited from earlier work
[8] = rats; cited from earlier work
[9] = tested on: GABA-mediated neuronal inhibition; conditions: cited from earlier work
GABAA receptors [10] = conditions: cultured hippocampal neurons; cited from earlier work
[11] = tested on: GABA-mediated inhibitory synaptic responses; conditions: olfactory cortical slices; cited from earlier work
GABA-gated channels = conditions: fluctuation analysis; cited from earlier work
GABAA receptors [12] = conditions: cited from earlier work
GABA currents = conditions: various CNS neurons, cited from earlier work
picrotoxin site = conditions: cited from earlier work
GABAA channels = conditions: single channel; cited from earlier work
[13] = in vivo; cited from earlier work

CC(=O)[C@H]1CC[C@H]2[C@@H]3CC[C@@H]4C[C@H](O)CC[C@]4(C)[C@H]3CC[C@]12C [3α-hydroxy-5β-pregnan-20-one]
activity in vivo as steroid anesthetics [1]: active in vivo as steroid anesthetics
potentiation of muscimol-stimulated chloride uptake (rat synaptoneurosomes): potentiators of muscimol-stimulated chloride uptake
potentiation of GABA-induced chloride currents [2]: potentiators of GABA-induced chloride currents

C[C@]12CCC(=O)C=C1CC[C@@H]1[C@@H]2[C@@H](O)C[C@@]2(C)[C@H]1CC[C@]2(O)C(=O)CO [Cortisol]
GABA-induced chloride currents ([3]; nanomolar concentrations): inhibits these same currents
GABA-induced chloride currents ([3]; picomolar concentrations): augments GABA-induced chloride currents

CC(=O)[C@H]1CC[C@H]2[C@@H]3CC[C@H]4C[C@H](O)CC[C@]4(C)[C@H]3CC[C@]12C [Example 3α-OH-DHP, 3α-hydroxy-5α-pregnan-20-one]
Potentiation of GABA currents, 0.1 μM ([4]; 0.1 μM compound): 110 ± 5% of control response to
Potentiation of GABA currents, 1.0 μM ([4]; 1.0 μM compound): 195 ±16% of control response to
Concentration for Direct Cl^- Current Activation [5]: > 1 µM
channel open times and burst lengths / opening frequency [6]: increases the frequency of channel opening without altering the open times
activity in vivo as steroid anesthetics [1]: active in vivo as steroid anesthetics
potentiation of muscimol-stimulated chloride uptake (rat synaptoneurosomes): potentiators of muscimol-stimulated chloride uptake
potentiation of GABA-induced chloride currents [2]: potentiators of GABA-induced chloride currents

CCOC(=O)c1ncn2c1CN(C)C(=O)c1cc(F)ccc1-2 [R015-1788 (flumazenil)]
effect on steroid responses (benzodiazepine receptors): failed to find an effect

C[C@]12CC[C@@H](O)C[C@@H]1CC[C@@H]1[C@@H]2CC[C@]2(C)[C@@H](C(=O)CO)CC[C@@H]12 [THDOC, 5α-pregnane-3α, 21-diol-20-one]
anxiolytic and sedative activity [7]: both anxiolytic and sedative activity
sleep induction and nonREM sleep [8]: induce sleep and increase nonREM sleep
GABA-mediated neuronal inhibition [9]: augment GABA-mediated neuronal inhibition

CC(=O)[C@H]1CC[C@H]2[C@@H]3CC[C@H]4C[C@H](O)CC[C@]4(C)[C@H]3C(=O)C[C@]12C [alphaxalone]
peak IPSC amplitude or rise time (GABAA receptors [10]): without change in peak IPSC amplitude or rise time
prolongation of IPSC decay (GABAA receptors [10]): 5-8 fold
time course of GABA-mediated inhibitory synaptic responses [11]: prolongs the time course of GABA-mediated inhibitory synaptic responses
burst length of GABA-gated channels (GABA-gated channels): significantly prolongs the burst length of GABA-gated channels
single channel conductance (GABA-gated channels): without changing the single channel conductance

CN1CCc2cc3c(cc2[C@H]1[C@@H]1OC(=O)c2c1ccc1c2OCO1)OCO3 [bicuculline]
block of steroid gated currents (GABAA receptors [12]): blocked

C[C@]12CC[C@H](OS(=O)(=O)O)CC1=CC[C@@H]1[C@@H]2CC[C@]2(C)C(=O)CC[C@@H]12 [dehydroepiandrosterone sulfate (DHEAS), dehydroepiandrosterone sulfate]
GABA currents (GABA currents): inhibit GABA currents
TBPS binding (picrotoxin site): not DHEAS

CCCC(C)C1(CC)C(=O)NC(=O)NC1=O (stereo not shown) [pentobarbital]
channel open times and burst lengths / opening frequency [6]: prolongs channel open times and burst lengths

CC(=O)C1CCC2C3CC=C4CC(OS(=O)(=O)O)CCC4(C)C3CCC12C (stereo not shown) [pregnenolone sulfate]
GABA currents (GABA currents): inhibit GABA-induced chloride currents
GABA currents (GABA currents; listed as pregnenolone sulfate (PS)): inhibit GABA currents
TBPS binding (picrotoxin site): inhibits TBPS binding at the picrotoxin site
opening frequency of the channels (GABAA channels): decreasing the opening frequency of the channels

CC(=O)[C@H]1CC[C@H]2[C@@H]3CCC4=CC(=O)CC[C@]4(C)[C@H]3CC[C@]12C [progesterone]
usefulness for treating premenstrual syndrome [13]: often useful

picrotoxin
opening frequency of the channels (GABAA channels): decreasing the opening frequency of the channels
